The record followed here is US9359275B2, “Natural product antibiotics and analogs thereof” (Children's Medical Center Corporation, priority 2012, dated 2016).

Converted amounts (≈) assume the structure as drawn. Read-outs that look alike come from different tables or passages of the source.

Assay [1] concerns V. cholerae. Put plainly: Medium acidification (sugar fermentation) assay in pH-MMSuc, A615. Particulars: 30° C.
Procedure: The assays were carried out at 30° C. in pH-MMSuc to monitor sugar fermentation by A615 (FIGS. 5A, 5B, and 5C) or in MMPyr to monitor bacterial growth by OD615 (D, E, and F).
The assays were carried out at 30° C. in pH-MMSuc to monitor sugar fermentation by A615.
A minimal medium (MM) supplemented with sucrose (0.5% wt/vol), thymol blue (0.006% wt/vol) and bromothymol blue (0.006% wt/vol) (pH-MM^Suc) was used for the HTS (Houot et al., J Bacteriol (2008) 190: 311-320).
Conditions were tested in duplicate in each experiment, and two experimental replicates were performed on separate days.
The subject of assay [2] is V. cholerae. The experiment in a line: Growth assay in MMPyr (OD615) and plating for CFU. Particulars: with the assay described.
Procedure: The assays were carried out at 30° C. in pH-MMSuc to monitor sugar fermentation by A615 (FIGS. 5A, 5B, and 5C) or in MMPyr to monitor bacterial growth by OD615 (D, E, and F). Bacteria were exposed to compound 1 (FIGS. 5A and 5D), compound 2 (FIGS. 5B and 5E) or compound 3 (FIGS. 5C and 5F) at concentrations ranging from 14 to 383 μM.
In secondary screens, MM was also supplemented with glucose (0.5% wt/vol), thymol blue (0.006% wt/vol), and bromothymol blue (0.006% wt/vol) (pH-MM^Glu') or pyruvate (0.5% wt/vol) (MM^Pyr).
Conditions were tested in duplicate in each experiment, and two experimental replicates were performed on separate days. […] To determine whether this represented bacteriostatic or bactericidal activity, dilutions of the cell suspensions were plated on LB agar after 20 hours of growth in MM^Pyr supplemented with compound 1 at a concentration of 383 μM.
In assay [3] the test system is M. tuberculosis H37Rv ATCC 27294. The experiment in a line: MIC, microplate-based Alamar blue assay (MABA). It counts as cell-based, Mycobacterium tuberculosis. (The colour change of resazurin is a common sign of viable cells or microbes.)
The test system of another assay is P. aeruginosa ATCC 27853. The experiment in a line: MIC, microdilution broth method in CAMHB. It counts as cell-based, Pseudomonas aeruginosa. For orientation: Dilution methods test growth across graded concentrations, often in twofold steps.
A further assay has as its system MRSA ATCC BAA-976. Put plainly: MIC, microdilution broth method in CAMHB. It counts as cell-based, Staphylococcus aureus.
The next assay deals with V. cholerae PW357. The experiment in a line: MIC, microdilution broth method in CAMHB. Format: cell-based, Vibrio cholerae.
In assay [4] the test system is K. pneumoniae carbapenemase positive ATCC BAA-1705. The experiment in a line: MIC, microdilution broth method in CAMHB. It counts as cell-based, Klebsiella pneumoniae.
Another assay deals with E. coli ATCC 25922. Put plainly: MIC, microdilution broth method in CAMHB. It counts as cell-based, Escherichia coli.
[5] abbreviates: Mycobacterium tuberculosis, M. tuberculosis H37Rv ATCC 27294, Alamar Blue Assay, ≧90% inhibition, read-out: MIC.
[6] abbreviates: Pseudomonas aeruginosa, ATCC27853, P. aeruginosa ATCC 27853, read-out: MIC.
Setting [7] is: Staphylococcus aureus, MRSA ATCC BAA-976, read-out: MIC.
The mark [8] stands for this setting: Vibrio cholerae, V. cholerae PW357, read-out: MIC.
Where [9] appears, read: Klebsiella pneumoniae, ATCCBAA1705, K. pneumoniae carbapenemase positive ATCC BAA-1705, read-out: MIC.
[10] abbreviates: Escherichia coli, ATCC25922, E. coli ATCC 25922, read-out: MIC.

In the case of `CC1(O)CCC(c2c(O)cc3c(c2O)C(=O)c2c(O)cc(O)cc2C3=O)CO1` (centres unmarked) [SC3-22-19], in the assay on V. cholerae [1], the sugar utilization entry was “decreased sugar utilization”.

In the case of `CC1Cc2c(ccc(O)c2CO)O1` (centres unmarked) [Compound 2, 5-hydroxy-4-(hydroxymethyl)-2-methyl 2,3-dihydrobenzofuran], the “antibacterial activity (in words)” value in the assay with V. cholerae [2] is “demonstrated anti-bacterial activity”.

By MIC is commonly meant the smallest concentration in the dilution series that meets the test's criterion for growth inhibition. For the compound `C[C@@H](O)[C@H]1C(=O)N2C(C(=O)O)=C(SCCN=CN)C[C@H]12` [IMI, imipenem], the MIC in assay [3] (setting [5]) is 100 mg/L (≈ 334 µM); in the assay with P. aeruginosa ATCC 27853 (setting [6]), 5 mg/L (≈ 16.7 µM); in the assay with MRSA ATCC BAA-976 (setting [7]), 1.25 mg/L (≈ 4.18 µM); with V. cholerae PW357 (setting [8]) it was 1.25 mg/L (≈ 4.18 µM); in assay [4] (setting [9]), greater than 80 mg/L; in the assay with E. coli ATCC 25922 (setting [10]) it was 1.25 mg/L (≈ 4.18 µM).

On to bactrim [TMP/SMX], for which the MIC in assay [3] (M. tuberculosis H37Rv ATCC 27294, Alamar Blue Assay, ≧90% inhibition) is 2 mg/L; against P. aeruginosa ATCC 27853, greater than 16 mg/L; in the assay with MRSA ATCC BAA-976 (MRSA ATCC BAA-976), 0.062 mg/L; in the assay on V. cholerae PW357 (V. cholerae PW357), greater than 16 mg/L; in assay [4] (K. pneumoniae carbapenemase positive ATCC BAA-1705), greater than 16 mg/L; in the assay on E. coli ATCC 25922 (E. coli ATCC 25922), 0.125 mg/L.

For `C[C@H]1COc2c(N3CCN(C)CC3)c(F)cc3c(=O)c(C(=O)O)cn1c23` [LEVO, levofloxacin], the MIC is 0.25 mg/L (≈ 0.692 µM) in assay [3] (setting [5]); 1.25 mg/L (≈ 3.46 µM) with P. aeruginosa ATCC 27853 (setting [6]); 0.312 mg/L (≈ 0.863 µM) in the assay on MRSA ATCC BAA-976 (setting [7]); less than 0.005 mg/L in the assay with V. cholerae PW357 (setting [8]); greater than 80 mg/L in assay [4] (setting [9]); 0.019 mg/L (≈ 0.0526 µM) in the assay on E. coli ATCC 25922 (setting [10]).

Turning to `CCCc1c(O)ccc(O)c1CO` [Compound 1, 2-(hydroxymethyl)-3-propyl hydroquinone], the MIC in assay [3] (Mycobacterium tuberculosis) was 25 mg/L (≈ 137 µM); against P. aeruginosa ATCC 27853 (Pseudomonas aeruginosa, ATCC27853), 80 mg/L (≈ 439 µM); in the assay with MRSA ATCC BAA-976 (Staphylococcus aureus), 10 mg/L (≈ 54.9 µM); in the assay with V. cholerae PW357 (Vibrio cholerae, PW357), 40 mg/L (≈ 220 µM); in assay [4] (Klebsiella pneumoniae, ATCCBAA1705), greater than 80 mg/L; against E. coli ATCC 25922 (Escherichia coli, ATCC25922), 80 mg/L (≈ 439 µM). In the assay with V. cholerae [1], the “concentration at which medium acidification was completely blocked” value is 261 µM. The “concentration at which medium acidification was inhibited” value in the assay on V. cholerae [1] was 134 µM.

`CC1(C)S[C@@H]2[C@H](NC(=O)[C@H](N)c3ccccc3)C(=O)N2[C@H]1C(=O)O` [AMP, ampicillin]: the MIC is 0.25 mg/L (≈ 0.715 µM) in assay [3] (setting [5]); greater than 80 mg/L in the assay on P. aeruginosa ATCC 27853 (setting [6]); greater than 80 mg/L with MRSA ATCC BAA-976 (setting [7]); 2.5 mg/L (≈ 7.15 µM) in the assay on V. cholerae PW357 (setting [8]); greater than 80 mg/L in assay [4] (setting [9]); 2.5 mg/L (≈ 7.15 µM) in the assay on E. coli ATCC 25922 (setting [10]).

As to `CCCC1=C(CO)C(=O)C=CC1=O` [Compound 3, 2-(hydroxymethyl)-3-propyl benzoquinone], the “antibacterial activity (in words)” value with V. cholerae [2] is listed as “little to no antibacterial activity”.
